In patent publication US20250304523A1, “COMBINED LACTATE AND KETONE BODY ESTERS FOR MEDICAL AND NUTRITIONAL USE” (Aarhus Universitet, priority 2022, published 2025):

How the values were obtained:
Format in all cases: in vivo
[1] = tested on: free fatty acids (FFA); test: Non-esterified free fatty acids in rat serum after oral administration (NEFA-HR (2) kit); conditions: rats, compared to baseline (internal control), sampling until 180 minutes
Method: (§1) The diLaKe ester (formula II) is diluted in physiological saline solution (0.9% NaCl) and administered as a single bolus of 2 mL, per oral dose. The dose of 4500 mg/kg is based on a previous pilot series. Placebo animals receive a single bolus of 2 mL physiological saline solution (0.9% NaCl).
(§2) Following the baseline blood sample, a bolus of diLaKe solution or placebo is administered via the orogastric tube to the animals. […] Serum is collected and stored at −80° C. for further analysis.
The concentration of free-fatty acids (FFA) is determined in the blood samples isolated from the rats according to example 3. […]
Concentrations of non-esterified free fatty acids (NEFA) are measured using a NEFA-HR (2) kit (Wako, Chemicals Gmbh). Absorbance is measured by spectrometry (PHERAstar FS, BMG LABTECH, Ortenberg, Germany). […]
The concentration of free-fatty acids (FFA) was determined in the blood samples isolated from the rats according to example 4. […]
Concentrations of non-esterified free fatty acids (NEFA) were measured using a NEFA-HR (2) kit (Wako, Chemicals Gmbh). Absorbance was measured by spectrometry (PHERAstar FS, BMG LABTECH, Ortenberg, Germany).
The concentration of free-fatty acids (FFA) was determined in the blood samples isolated from the rats according to example 4, with the difference that KeLa (formula XXIV and XXV) was used. […]

[2] = tested on: N-lactoyl-phenylalanine (Lac-Phe); test: Quantification of N-lactoyl-phenylalanine (Lac-Phe) in rat serum after oral administration (LC-MS/MS); conditions: compared to baseline (internal control)
Method: As provided in example 21 with the difference that N-lactoyl-phenylalanine (Lac-Phe) was quantified using LC-MS/MS analyses.
LC-MS/MS analyses were carried out as follows: Forty μL rat plasma was diluted with 100 μL water in a 2 mL tube, added 115 μL methanol (Merck hypergrade) and 420 μL acetonitrile (Merck hypergrade), vortex mixed, incubated for 5 min at room temperature, and then centrifuged at 10,000×g for 5 min. Five hundred microliter supernatant was transferred to a 96-well plate (Eppendorf 1 mL deepwell), evaporated to dryness under a nitrogen gas flow at 30° C., and then reconstituted in 100 μL water with 0.1% formic acid. […]
The sample was introduced to the mass spectrometer through electrospray ionization in the negative mode with a capillary voltage of 2.2 kV and the source and desolvation temperatures were 150 and 500° C., and the nitrogen gas flows were 50 L/h (cone) and 800 L/h (desolvation). The analytes were detected in the multiple reaction monitoring mode with the following transitions (m/z) and cone voltage/collision energies (CV/CE), L-Lac-Phe (quantification ion m/z: 236.2>88.1, CV/CE: 25V/15 eV and qualifier ion m/z: 236.2>147.1, CV/CE: 25V/15 eV). […]

[3] = Quantification of BHB and lactate in rat serum after oral administration (LC-MS/MS); conditions: compared to baseline (internal control), sampling until 180 minutes
Method: as §1
Male Sprague Dawley rats are kept for acclimatization at a constant temperature of 23° C., with a 12 h light-dark cycle and with unlimited access to food and water. All animal handling is in accordance with national guidelines in Denmark and the Guide for the Care and Use of Laboratory Animals^1 and all experiments conformed to Danish Law (Act. No. 1306 of 23 Nov. 2007).
The rats are randomly selected to receive either diLaKe or placebo.
Rats are anaesthetised in an induction chamber with 8% Sevoflurane (Sevorane®, AbbVIE A/S, Copenhagen, Denmark) mixed with oxygen saturated atmospheric air (flow: 2.0 L/min).
Upon achieved anaesthesia, the rats are intubated and connected to a mechanical ventilator (Ugo Basile 7025 rodent ventilator, Comerio, Varese, Italy) with an adjusted flow of 1.0 L/min with 3.5% Sevoflurane. Body temperature is kept at a constant 37° C.±1° C. with a temperature probe (UNO, Zevenaar, Holland). A PTFE coated flexible orogastric tube (Fuchigami, Japan) is placed and the rat is left for stabilization for 15 minutes.
After stabilization a baseline blood sample is collected from the rat tail vein before administration of diLaKe or placebo.
as §2
The concentration of BHB and lactate will be determined in the blood samples isolated from the rats according to example 3. Rat serum isolated every 15 minutes for a 2 hours are analyzed. The quantification is done on LC-MS/MS using isotopically labeled internal standards (7).
The LaKe ester (formula XXII and XXIII) was diluted in physiological saline solution (0.9% NaCl) and administered as a single bolus of 2 mL, per oral dose. The dose of 4500 mg/kg was based on a previous pilot series (data not shown).
Male Sprague Dawley rats (300-350 g, Taconic, Ry, Denmark) were kept for acclimatization at a constant temperature of 23° C., with a 12 h light-dark cycle and with unlimited access to food and water. […]
Based on own experience and reports by other research groups, a sample size of n=8 was considered adequate to identify a treatment effect. All results are expressed as mean±SD unless otherwise stated. Differences in concentrations were analysed using two-way ANOVA with Bonferroni post hoc correction. […]

| Serum levels of BHB ([3]; rats) | Serum levels of lactate ([3]; rats) | Serum levels of BHB ([3]; single rat) | Serum levels of lactate ([3]; single rat) | Compound | FFA-levels in rat serum [1] | Serum concentration of Lac-Phe ([2]; rats, sampling until 180 minutes) | Serum concentration of Lac-Phe ([2]; single rat) |
| --- | --- | --- | --- | --- | --- | --- | --- |
| increase in serum levels | increase in serum levels |  |  | C[C@H](CCOC(=O)[C@H](C)O)OC(=O)[C@H](C)O [diLaKe, (R)-butane-1,3-diyl (2S,2'S)-bis(2-hydroxypropanoate)] | decrease in FFA-levels | increased serum concentration |  |
|  |  | increase in serum levels | increase in serum levels | CC(=O)C(=O)OCC[C@@H](C)OC(=O)C(C)=O [diPyKe, (R)-butane-1,3-diyl bis(2-oxopropanoate)] |  |  | increased serum concentration |
